# Source: patent US8580556B2, “Sulfonylurea-responsive repressor proteins” (E. I. du Pont de Nemours and Company, priority 2008, dated 2013)
# Assays:
# [1] = pH 7; cited from earlier work
# [2] = tested on: tet operator (tetO); test: Electrophoretic gel mobility shift assay (EMSA), tet operator binding; conditions: ethametsulfuron repressor protein (L7A11) with TetO DNA; FIG. 7
# [3] = tested on: tetA promoter (PtetA)-lacZ reporter in E. coli KM3; format: cell-based; conditions: L1 hits; 20 μg/ml
# [4] = tested on: tobacco BY-2 cell culture; test: Tobacco BY-2 cell culture (dMMV-HRA) sulfonylurea resistance; format: cell-based, N. tabacum; conditions: 200 ppb chlorsulfuron
# Text: In addition to the leaf assay it was desired to have an in planta assay to enable high throughput screening of SuR libraries for optimal plant functionality. We designed a system similar to the leaf assay but using tobacco BY-2 cell culture in 96-well format. BY-2 cell culture was transformed with a dMMV-HRA construct such that the culture would withstand treatment with target sulfonylurea test compounds.
Structure (SMILES),logP [1],release of repressor from operator sequence by inducer [2],activator potency compared with the starting ligand Harmony® [3],growth of dMMV-HRA transformed BY-2 cell line [4]
"COC(=O)c1sccc1S(=O)(=O)NC(=O)Nc1nc(C)nc(OC)n1 [Harmony®, thifensulfuron-methyl]",~0.02,,,
"Cc1c2c(c(O)c3c(O)cccc13)C(=O)[C@]1(O)C(=O)C(C(N)=O)=C(O)[C@@H](N(C)C)[C@@H]1C2 [atc, anhydrotetracycline]",,No change in operator release,,
"CCOC(=O)c1ccccc1S(=O)(=O)NC(=O)Nc1nc(Cl)cc(OC)n1 [chlorimuron, Chlorimuron-ethyl, reference compound]",,,more potent activators,
"COc1nc(C)nc(NC(=O)NS(=O)(=O)c2ccccc2Cl)n1 [chlorsulfuron, 2 chloro N ((4 methoxy 6 methy 1,3,5 triazine 2 yl)aminocarbonyl)benzenesulfonamide, reference compound]",,,more potent activators,fully resistant
"CCOc1nc(NC)nc(NC(=O)NS(=O)(=O)c2ccccc2C(=O)OC)n1 [ethametsulfuron, Ethametsulfuron-methyl, reference compound]",,inducer preference for operator release,more potent activators,
